From patent publication US20160326142A1, “PYRAZOLE CARBOXAMIDE COMPOUNDS, COMPOSITIONS AND METHODS OF USE” (Genentech, Inc., priority 2012, published 2016) come the findings set out here.

For this assay, the target named is T1, ITK (Homo sapiens, UniProt Q08881).
T1 construct: purchased Invitrogen PV3875
T1 sequence (Q08881 1-620): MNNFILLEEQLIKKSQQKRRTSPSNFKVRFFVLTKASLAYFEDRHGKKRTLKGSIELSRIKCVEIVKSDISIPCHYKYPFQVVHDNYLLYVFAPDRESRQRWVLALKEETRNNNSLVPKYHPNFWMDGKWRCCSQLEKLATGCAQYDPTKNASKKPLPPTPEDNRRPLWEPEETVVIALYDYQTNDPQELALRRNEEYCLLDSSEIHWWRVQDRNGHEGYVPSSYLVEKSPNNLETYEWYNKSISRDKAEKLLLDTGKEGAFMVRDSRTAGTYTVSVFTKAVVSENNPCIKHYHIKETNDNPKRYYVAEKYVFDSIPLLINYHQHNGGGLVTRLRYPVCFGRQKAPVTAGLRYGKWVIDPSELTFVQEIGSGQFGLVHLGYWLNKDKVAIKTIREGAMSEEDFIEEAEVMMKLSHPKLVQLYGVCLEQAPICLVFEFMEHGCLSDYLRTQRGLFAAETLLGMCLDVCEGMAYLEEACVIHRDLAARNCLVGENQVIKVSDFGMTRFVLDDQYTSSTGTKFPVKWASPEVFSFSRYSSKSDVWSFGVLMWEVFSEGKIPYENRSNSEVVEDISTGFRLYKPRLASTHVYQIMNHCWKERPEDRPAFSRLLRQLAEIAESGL
Put plainly: ITK enzyme assay (Caliper or LCMS peptide phosphorylation). It counts as biochemical. The conditions noted are these: purified ITK (Invitrogen PV3875), 20 μM ATP, Ki by Morrison's quadratic equation. The essentials:
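Purified human ITK peptide phosphorylation, quenched with EDTA (50 mM final) for Caliper LabChip separation or TCA (5% v/v final) for UPLC-MS/MS MRM quantification. Ki derived via Morrison tight-binding equation, corrected for competitive inhibition using ATP concentration relative to Km,app.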
For the compound `CC1(C#N)CCc2c(C(=O)Nc3cnn(Cc4ccccc4)c3)n[nH]c2C1` (single isomer, unassigned) [Example 102a, N-(1-benzyl-1H-pyrazol-4-yl)-6-cyano-6-methyl-4,5,6,7-tetrahydro-1H-indazole-3-carboxamide], the inhibition constant (Ki) was 300 nM.
`CN(CCC(c1ccccc1)n1cc(NC(=O)c2n[nH]c3c2CCC(C)(C)C3)cn1)S(C)(=O)=O` (centres unmarked) [Example 122, 6,6-dimethyl-N-(1-(3-(N-methylmethylsulfonamido)-1-phenylpropyl)-1H-pyrazol-4-yl)-4,5,6,7-tetrahydro-1H-indazole-3-carboxamide] yielded an inhibition constant Ki of 4 nM. This Ki lies about 75-fold lower than the previous one.
Then `CN(C)CCC(c1ccccc1)n1cc(NC(=O)c2n[nH]c3c2CC2CC2C3)cn1` (single isomer, unassigned) [Example 28d, N-(1-(3-(dimethylamino)-1-phenylpropyl)-1H-pyrazol-4-yl)-1,4,4a,5,5a,6-hexahydrocyclopropa[f]indazole-3-carboxamide], with 98 nM; and `CC(c1cccnc1)n1cc(NC(=O)c2n[nH]c3c2CCC(C)(C)C3)cn1` (single isomer, unassigned) [Example 106a, 6,6-dimethyl-N-(1-(1-(pyridin-3-yl)ethyl)-1H-pyrazol-4-yl)-4,5,6,7-tetrahydro-1H-indazole-3-carboxamide], with 3 nM; and `CC12Cc3[nH]nc(C(=O)Nc4cnn(C(CS(C)(=O)=O)c5cccnc5)c4)c3CC1C2` (single isomer, unassigned) [Example 93a, 5a-methyl-N-(1-(2-(methylsulfonyl)-1-(pyridin-3-yl)ethyl)-1H-pyrazol-4-yl)-1,4,4a,5,5a,6-hexahydrocyclopropa[f]indazole-3-carboxamide], with less than 0.1 nM.
The result for `CC1(C)CCc2c(C(=O)Nc3cnn(C(CO)c4cccnc4)c3)n[nH]c2C1` (single isomer, unassigned) [Example 81b, N-(1-(2-hydroxy-1-(pyridin-3-yl)ethyl)-1H-pyrazol-4-yl)-6,6-dimethyl-4,5,6,7-tetrahydro-1H-indazole-3-carboxamide] reads 3 nM; that for `CC1CC(C(c2ccccc2)n2cc(NC(=O)c3n[nH]c4c3CCC(C)(C)C4)cn2)CCS1(=O)=O` (single isomer, unassigned) [Example 139g, 6,6-dimethyl-N-(1-((2-methyl-1,1-dioxidotetrahydro-2H-thiopyran-4-yl)(phenyl)methyl)-1H-pyrazol-4-yl)-4,5,6,7-tetrahydro-1H-indazole-3-carboxamide], 8 nM.
`CC1(C)CCc2c(C(=O)Nc3cnn(C(c4cccc(S(C)(=O)=O)c4)C4CCOCC4)c3)n[nH]c2C1` (single isomer, unassigned) [Example 154b, 6,6-dimethyl-N-(1-((3-(methylsulfonyl)phenyl)(tetrahydro-2H-pyran-4-yl)methyl)-1H-pyrazol-4-yl)-4,5,6,7-tetrahydro-1H-indazole-3-carboxamide]: the affinity, expressed as Ki, was 1 nM. This Ki is about 8-fold lower than that of the compound before.
Then `CC1(C)CCc2c(C(=O)Nc3cnn(C(c4ccccc4)C4CCN(CCF)CC4)c3)n[nH]c2C1` (single isomer, unassigned) [Example 63b, N-(1-((1-(2-fluoroethyl)piperidin-4-yl)(phenyl)methyl)-1H-pyrazol-4-yl)-6,6-dimethyl-4,5,6,7-tetrahydro-1H-indazole-3-carboxamide], with 1 nM; and `CC1(C)CCc2c(C(=O)Nc3cnn(C(CS(C)(=O)=O)c4cccnc4)c3)n[nH]c2C1` (single isomer, unassigned) [Example 73b, 6,6-dimethyl-N-(1-(2-(methylsulfonyl)-1-(pyridin-3-yl)ethyl)-1H-pyrazol-4-yl)-4,5,6,7-tetrahydro-1H-indazole-3-carboxamide], with 7 nM.
The result for `CN1CC(C(c2ccccc2)n2cc(NC(=O)c3n[nH]c4c3CCC(C)(C)C4)cn2)C1` (single isomer, unassigned) [Example 38b, 6,6-dimethyl-N-(1-((1-methylazetidin-3-yl)(phenyl)methyl)-1H-pyrazol-4-yl)-4,5,6,7-tetrahydro-1H-indazole-3-carboxamide] reads 0.5 nM; that for `COc1ccc(C(C)n2cc(NC(=O)c3n[nH]c4c3CCC(C)(C)C4)cn2)cn1` (single isomer, unassigned) [Example 109a, N-(1-(1-(6-methoxypyridin-3-yl)ethyl)-1H-pyrazol-4-yl)-6,6-dimethyl-4,5,6,7-tetrahydro-1H-indazole-3-carboxamide], 4 nM.
With `CCn1cc(C(C)n2cc(NC(=O)c3n[nH]c4c3CCC(C)(C)C4)cn2)cn1` (single isomer, unassigned) [Example 100b, N-(1-(1-(1-ethyl-1H-pyrazol-4-yl)ethyl)-1H-pyrazol-4-yl)-6,6-dimethyl-4,5,6,7-tetrahydro-1H-indazole-3-carboxamide], affinity was put at a Ki of 7 nM.
Then `Cn1cc(C(c2ccccc2)n2cc(NC(=O)c3n[nH]c4c3CC3CC3C4)cn2)cn1` (single isomer, unassigned) [Example 27b, N-(1-((1-methyl-1H-pyrazol-4-yl)(phenyl)methyl)-1H-pyrazol-4-yl)-1,4,4a,5,5a,6-hexahydro cyclopropa[f]indazole-3-carboxamide], with 11 nM; and `CC12Cc3[nH]nc(C(=O)Nc4cnn(C(c5cccnc5)C5CC[S+]([O-])CC5)c4)c3CC1C2` (single isomer, unassigned) [Example 146a, 5a-methyl-N-(1-((1-oxidotetrahydro-2H-thiopyran-4-yl)(pyridin-3-yl)methyl)-1H-pyrazol-4-yl)-1,4,4a,5,5a,6-hexahydrocyclopropa[f]indazole-3-carboxamide], with 0.1 nM; and `CN(C)CCC(c1ccccc1)n1cc(NC(=O)c2n[nH]c3c2C2CC2CC3)cn1` (single isomer, unassigned) [Example 26d, N-(1-(3-(dimethylamino)-1-phenylpropyl)-1H-pyrazol-4-yl)-3,4,5,5a,6,6a-hexahydrocyclopropa[e]indazole-1-carboxamide], with 780 nM.
`O=C(Nc1cnn(Cc2ccccc2)c1)c1n[nH]c2c1CCC1(CCCO1)C2` (single isomer, unassigned) [Example 50b, N-(1-benzyl-1H-pyrazol-4-yl)-1′,4,4′,5,5′,7′-hexahydro-3H-spiro[furan-2,6′-indazole]-3′-carboxamide] showed a Ki of 620 nM.
Then `CC12CCc3c(C(=O)Nc4cnn(Cc5ccccc5)c4)n[nH]c3C1C2` (single isomer, unassigned) [Example 153a, N-(1-benzyl-1H-pyrazol-4-yl)-5a-methyl-1,4,5,5a,6,6a-hexahydrocyclopropa[g]indazole-3-c arboxamide], with 58 nM.
Then `CC1(C)CCc2c(C(=O)Nc3cnn(C(CO)c4ccccc4)c3)n[nH]c2C1` (single isomer, unassigned) [Example 53b, N-(1-(2-hydroxy-1-phenylethyl)-1H-pyrazol-4-yl)-6,6-dimethyl-4,5,6,7-tetrahydro-1H-indazole-3-carboxamide], with 29 nM.
Regarding `O=C(Nc1cnn(Cc2ccccc2)c1)c1n[nH]c2c1CCC(CO)C2` (single isomer, unassigned) [Example 14b, N-(1-benzyl-1H-pyrazol-4-yl)-6-(hydroxymethyl)-4,5,6,7-tetrahydro-1H-indazole-3-carboxamide], the affinity, expressed as Ki, was 21 nM.
